Data on 1 molecule can be found in ChEMBL document CHEMBL5321209, “Design, synthesis of novel benzimidazole derivatives as ENL inhibitors suppressing leukemia cells viability via downregulating the expression of MYC” (Eur J Med Chem, 2023).

Molecules are shown by their SMILES. Active and inactive are the calls of the source. No cut-off for these calls is given here. A value given as a limit tells only on which side of the number the result lay.

Data set [1] can be described thus: Tmax in BALB/c mouse at 30 mg/kg, po measured after 0.5 to 24 hrs by LC-MS/MS assay. The class given is ADME, organism-based. The conditions noted are these: in vivo, time 0.5-24 hrs.
A short description of data set [2]: Cmax in BALB/c mouse at 30 mg/kg, po measured after 0.5 to 24 hrs by LC-MS/MS assay. The class given is ADME, organism-based. On the set-up: dose 30 mg/kg, time 0.5-24 hrs, route po. The note with it: in vivo.
Data set [3] in a line: Half life in BALB/c mouse at 30 mg/kg, po measured after 0.5 to 24 hrs by LC-MS/MS assay. The class given is ADME, organism-based. The note with it: in vivo, time 0.5-24 hrs.
A short description of data set [4]: AUC (0 to t) in BALB/c mouse at 30 mg/kg, po measured after 0.5 to 24 hrs by LC-MS/MS assay. The class given is ADME, organism-based. The conditions noted are these: in vivo. On the set-up: dose 30 mg/kg, time 0.5-24 hrs, route po.
Data set [5] is described as follows: AUC (0 to infinity) in BALB/c mouse at 30 mg/kg, po measured after 0.5 to 24 hrs by LC-MS/MS assay. The class given is ADME, organism-based. On the set-up: time lower 0.5 hrs, dose 30 mg/kg, time upper 24 hrs, route po. The conditions noted are these: in vivo.
Data set [6] is described as follows: MRT (0 to infinity) in BALB/c mouse at 30 mg/kg, po measured after 0.5 to 24 hrs by LC-MS/MS assay. The class given is ADME, organism-based. The note with it: in vivo, time 0.5-24 hrs.
Data set [7] relates to MOLM-13. Put plainly: Antiproliferative activity against human MOLM-13 cells assessed as inhibition of cell growth measured after 72 hrs by Cell Titer-Glo luminescent assay. The note with it: MOLM-13, 72 h. The class given is functional, cell-based.
For data set [8], the target named is T1, Protein ENL (Homo sapiens, UniProt Q03111).
T1 sequence (Q03111 whole entry): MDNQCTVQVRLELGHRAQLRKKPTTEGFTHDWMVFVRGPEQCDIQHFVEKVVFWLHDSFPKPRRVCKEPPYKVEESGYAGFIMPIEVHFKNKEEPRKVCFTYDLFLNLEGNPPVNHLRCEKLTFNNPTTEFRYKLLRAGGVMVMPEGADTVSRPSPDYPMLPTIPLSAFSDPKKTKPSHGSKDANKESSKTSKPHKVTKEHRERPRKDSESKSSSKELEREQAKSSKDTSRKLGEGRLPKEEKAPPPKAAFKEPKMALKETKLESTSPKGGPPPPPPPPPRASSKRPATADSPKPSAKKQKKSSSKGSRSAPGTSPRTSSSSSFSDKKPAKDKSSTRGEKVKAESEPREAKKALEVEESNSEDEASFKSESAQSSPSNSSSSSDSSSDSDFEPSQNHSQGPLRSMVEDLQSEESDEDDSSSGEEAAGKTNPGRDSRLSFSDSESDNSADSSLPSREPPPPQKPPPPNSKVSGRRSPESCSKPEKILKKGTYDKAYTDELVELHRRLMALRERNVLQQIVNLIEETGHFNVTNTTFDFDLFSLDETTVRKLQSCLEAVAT
Put plainly: Inhibition of C-terminal 6xHis-tagged ENL YEATS domain (1 to 148 residues) (unknown origin) expressed in Escherichia coli BL21(DE3) cells using biotin-H3K27ace as substrate incubated for 45 mins by alpha screen assay.

The target in data set [9] is T1, Protein ENL. Put plainly: Binding affinity to C-terminal 6xHis-tagged ENL YEATS domain (1 to 148 residues) (unknown origin) expressed in Escherichia coli BL21(DE3) cells assessed as dissociation constant by SPR analysis. In general terms: In SPR one partner is held on a chip, and binding of the other changes the refractive index at the surface.
For data set [10], the target named is YEATS domain-containing protein 4 (Homo sapiens) (UniProt O95619). In words: Binding affinity recombinant GAS41 YEATS domain (15 to 159 residues) (unknown origin) expressed in Escherichia coli BL21(DE3) cells by SPR assay.
Chain of YEATS domain-containing protein 4 (Homo sapiens) (O95619 whole entry, the tested form may be a part): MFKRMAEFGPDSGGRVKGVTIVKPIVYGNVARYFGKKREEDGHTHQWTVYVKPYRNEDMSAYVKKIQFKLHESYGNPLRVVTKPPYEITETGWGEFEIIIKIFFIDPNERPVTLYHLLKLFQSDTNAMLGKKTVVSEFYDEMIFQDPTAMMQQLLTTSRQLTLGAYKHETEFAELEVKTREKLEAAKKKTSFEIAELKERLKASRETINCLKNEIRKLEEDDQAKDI
The nature of data set [11]: Downregulation of MYC mRNA level in human MOLM-13 cells at 5 uM incubated for 72 hrs by RT-PCR method relative to control. The class given is functional.
Data set [12] is described as follows: Downregulation of MYC gene expression in human MOLM-13 cells assessed as fold increase at 5 uM incubated for 72 hrs in presence of JQ-1 by RT-PCR method. The class given is functional.
Data set [13] in a line: Downregulation of MYC gene expression in human MOLM-13 cells assessed as decrease in fold change at 5 uM for 72 hrs by RT-PCR method relative to JQ-1. The class given is functional.
In data set [14] the target is YEATS domain-containing protein 4 (Homo sapiens) (UniProt O95619). Put plainly: Binding affinity recombinant GAS41 YEATS domain (15 to 159 residues) (unknown origin) assessed as thermal stability.
Data set [15] can be described thus: Cytotoxicity against HUVEC-C incubated for 72 hrs by Cell Titer-Glo luminescent assay. The class given is toxicity, cell-based. The note with it: human. A general note: ATP-based viability assays read luminescence as a measure of living cells.
Another data set relates to MRC5. In words: Cytotoxicity against human MRC5 cells incubated for 72 hrs by Cell Titer-Glo luminescent assay. The class given is toxicity, cell-based. The note with it: mrc5, 72 h.
In data set [16] the test system is MOLM-13. In words: Potency index, ratio of SGC-iMLLT IC50 to test compound IC50 for antiproliferative activity against human MOLM-13 cells. The class given is functional.
The target of data set [17] is T2, Protein ENL (Homo sapiens) (UniProt Q03111).
T2 sequence (whole entry): T1 sequence (Q03111 whole entry)
The note with it: dose 333.0 nM, time 45.0 min.

In data set [18] the target is T2, Protein ENL (Homo sapiens). The conditions noted are these: dose 111.0 nM, time 45.0 min.
Data set [19] has as its target T2, Protein ENL (Homo sapiens). The conditions noted are these: dose 50.0 µM.
Data set [20] has as its target T2, Protein ENL (Homo sapiens). The conditions noted are these: dose 25.0 µM.
Data set [21] addresses T2, Protein ENL (Homo sapiens). The note with it: dose 12.5 µM.
Description: Binding affinity to C-terminal 6xHis-tagged ENL YEATS domain (1 to 148 residues) (unknown origin) expressed in Escherichia coli BL21(DE3) cells assessed as thermal stability by measuring change in melting temperature at 12.5 uM by SYPRO dye-based thermal shift assay
Data set [22] addresses T2, Protein ENL (Homo sapiens). The conditions noted are these: dose 6.3 µM.
Description: Binding affinity to C-terminal 6xHis-tagged ENL YEATS domain (1 to 148 residues) (unknown origin) expressed in Escherichia coli BL21(DE3) cells assessed as thermal stability by measuring change in melting temperature at 6.3 uM by SYPRO dye-based thermal shift assay
Another data set concerns MV4-11. Put plainly: cells. The conditions noted are these: Homo sapiens, MV4-11, 72 h.

Description for MV4-11: Antiproliferative activity against human MV4-11 cells assessed as inhibition of cell growth measured after 72 hrs by Cell Titer-Glo luminescent assay

Broadly, the Tmax is the time at which the peak concentration occurs. Usually Cmax stands for the highest concentration seen after dosing. The half-life is the time in which the quantity being followed falls by half. Lower therefore signals rapid decline. One may read the AUC(0-t) as exposure summed from dosing to a finite time, without extrapolation to infinity. The term AUC(0-inf) denotes total exposure, with the tail of the curve extrapolated. Read a high AUC(0-inf) as more exposure. The term MRT inf denotes the average time that molecules of a dose stay in the body. A word on the IC50: it is the concentration at which inhibition is half-maximal. Broadly, the Kd is the constant that tells how readily two partners part at equilibrium. Usually inhibition stands for the share of the control response that was lost under treatment. Usually ΔTm stands for the shift of the melting midpoint relative to a reference. For `C[C@H]1CCCN1Cc1nc2cc(NC(=O)c3ccc4c(c3)c3ccccc3c(=O)n4C)ccc2[nH]1`, the Tmax in data set [1] was found to be 0.5 h. Further, the Cmax in [2] was 0.0718 µg/mL. The half-life in [3] is 5.2 h. The molecule further came in with an AUC(0-t) in [4] of 0.257 µg·h/mL. The molecule further showed an AUC(0-inf) in [5] of 0.272 µg·h/mL. This molecule also gave an MRT inf in data set [6] of 5.5 h. Also, the IC50 in the data set on MOLM-13 [7] is 8.3 µM; against Protein ENL [8], 0.0154 µM; with MV4-11 it was 4.8 µM. Also, the Kd on Protein ENL [9] came to 0.017 µM. The result in data set [10] and in data set [14] was inactive. The Activity in [11] is recorded as 50%; in data set [15] it was “Non-Toxic”; in the data set with MRC5, “Non-Toxic”. Also, the “fold change (FC)” value in data set [12] is more than 5; in [13] it was less than 2.5. In addition, the “Ratio IC50” value in the data set on MOLM-13 [16] is 9. Further, the inhibition in data set [17] came out at 100%; in data set [18], 99.6%. Moreover, the ΔTm in data set [19] is 5.5 °C; in data set [20] it was 4.3 °C; in data set [21], 3.3 °C; in [22], 1.9 °C.
